The source made the active and inactive calls. No cut-off for these calls is given here.
Assays:
[1] = test system: Rattus norvegicus; assay: In vivo stimulation of [3H]epibatidine binding to nicotinic acetylcholine receptor in rat prefrontal cortex relative to control; type: functional
[2] = biological target: T1, Neuronal acetylcholine receptor; alpha4/beta2 (Rattus norvegicus, UniProt P09483+P12390); assay: (§1) Displacement of [3H]epibatidine from alpha4beta2 nAChR in Sprague-Dawley rat brain cortical membrane after 3 hrs by liquid scintillation spectrometric analysis; type: tissue-based
[3] = biological target: T2, Neuronal acetylcholine receptor; alpha4/beta2 (Rattus norvegicus) (UniProt P09483+P12390); assay: as §1; type: tissue-based
[4] = biological target: T1, Neuronal acetylcholine receptor; alpha4/beta2; assay: Displacement of [3H]epibatidine from alpha4beta2 nAChR in Sprague-Dawley rat brain cortical membrane after 3 hrs; type: tissue-based
[5] = biological target: T2, Neuronal acetylcholine receptor; alpha4/beta2 (Rattus norvegicus); assay: Stimulation of [3H]epibatidine binding to alpha4beta2 nAChR in rat PC12 cells at 100 uM preincubated for 24 hrs followed by radioligand addition measured after 90 mins by liquid scintillation spectrometric analysis; type: cell-based; settings: PC-12
[6] = biological target: Sodium-dependent serotonin transporter (Rattus norvegicus, UniProt P31652); assay: Displacement of [3H]-citalopram from SERT in Sprague-Dawley rat cortex, striatum and cerebellum-dissected brain after 60 mins by scintillation counting analysis; type: tissue-based
Chain of Sodium-dependent serotonin transporter (P31652 whole entry): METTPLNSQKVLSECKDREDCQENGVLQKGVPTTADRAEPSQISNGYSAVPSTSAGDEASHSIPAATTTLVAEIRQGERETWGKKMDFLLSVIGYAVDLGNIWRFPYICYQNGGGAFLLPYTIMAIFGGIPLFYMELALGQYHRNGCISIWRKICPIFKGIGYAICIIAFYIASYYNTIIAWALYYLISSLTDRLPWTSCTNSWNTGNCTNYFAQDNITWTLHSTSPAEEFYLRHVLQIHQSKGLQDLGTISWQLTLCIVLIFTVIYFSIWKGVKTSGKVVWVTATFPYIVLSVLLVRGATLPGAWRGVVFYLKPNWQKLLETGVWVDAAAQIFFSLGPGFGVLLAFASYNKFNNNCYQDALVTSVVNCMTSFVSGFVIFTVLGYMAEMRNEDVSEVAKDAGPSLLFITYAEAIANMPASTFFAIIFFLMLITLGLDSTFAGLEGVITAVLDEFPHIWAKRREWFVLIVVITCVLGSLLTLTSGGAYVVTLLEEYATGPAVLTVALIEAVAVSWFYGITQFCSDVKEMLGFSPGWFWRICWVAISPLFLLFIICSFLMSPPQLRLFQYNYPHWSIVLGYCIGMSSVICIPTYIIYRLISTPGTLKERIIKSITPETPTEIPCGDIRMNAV

T1 sequence (P09483 whole entry): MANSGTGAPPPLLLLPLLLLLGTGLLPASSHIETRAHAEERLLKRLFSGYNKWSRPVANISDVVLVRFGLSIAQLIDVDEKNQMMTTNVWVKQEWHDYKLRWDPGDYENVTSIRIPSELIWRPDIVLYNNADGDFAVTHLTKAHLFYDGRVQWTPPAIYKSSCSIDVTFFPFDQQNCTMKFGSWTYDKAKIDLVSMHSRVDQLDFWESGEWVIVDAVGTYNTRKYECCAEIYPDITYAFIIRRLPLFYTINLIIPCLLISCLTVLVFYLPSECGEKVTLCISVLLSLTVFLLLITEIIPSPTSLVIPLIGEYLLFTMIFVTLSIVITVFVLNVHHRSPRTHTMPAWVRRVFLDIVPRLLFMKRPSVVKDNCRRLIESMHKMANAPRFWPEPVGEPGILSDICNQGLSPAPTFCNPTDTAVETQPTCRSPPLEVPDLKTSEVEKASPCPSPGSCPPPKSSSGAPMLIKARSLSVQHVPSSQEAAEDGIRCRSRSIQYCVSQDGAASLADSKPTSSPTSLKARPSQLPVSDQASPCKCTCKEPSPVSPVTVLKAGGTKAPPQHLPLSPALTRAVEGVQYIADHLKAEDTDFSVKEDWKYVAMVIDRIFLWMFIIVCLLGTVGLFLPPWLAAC
T1 sequence (P12390 whole entry): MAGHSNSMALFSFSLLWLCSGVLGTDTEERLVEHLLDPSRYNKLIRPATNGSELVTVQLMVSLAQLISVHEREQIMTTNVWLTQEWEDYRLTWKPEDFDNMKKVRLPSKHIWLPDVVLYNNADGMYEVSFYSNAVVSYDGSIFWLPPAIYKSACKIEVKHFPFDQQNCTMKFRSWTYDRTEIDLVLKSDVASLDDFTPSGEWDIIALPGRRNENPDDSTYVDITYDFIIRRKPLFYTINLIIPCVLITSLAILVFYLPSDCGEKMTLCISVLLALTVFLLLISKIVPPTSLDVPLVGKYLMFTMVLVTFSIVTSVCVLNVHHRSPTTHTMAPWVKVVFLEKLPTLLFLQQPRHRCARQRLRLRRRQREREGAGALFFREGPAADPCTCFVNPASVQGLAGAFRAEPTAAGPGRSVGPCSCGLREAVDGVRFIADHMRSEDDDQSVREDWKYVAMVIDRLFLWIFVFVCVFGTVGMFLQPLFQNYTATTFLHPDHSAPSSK

Q: With CN1CCC[C@H]1c1cccnc1 [NICOTINE] as the molecule, how does the Activity [1] read?
A: 30%

Q: CN[C@H](C)Cc1ccc2c(c1)OCO2 was tested. Which IC50 [2] did it give?
A: 13.4 µM

Q: What about the inhibition [3] of the same molecule?
A: Dose-dependent effect

Q: What about the Ki [4] of the same molecule?
A: 0.63 µM

Q: What about the Activity [5] of the same molecule?
A: Active

Q: What about the Ki [6] of the same molecule?
A: 24.5 µM

Q: What does the source list for CNC(C)Cc1ccc2c(c1)OCO2 (racemic) [MIDOMAFETAMINE]?
A: IC50 [2]: 30.4 µM; inhibition [3]: Dose-dependent effect; Activity [1]: 35%; Ki [4]: 1.44 µM; Activity [5]: Active

Q: Which IC50 [2] does the source give for CN[C@@H](C)Cc1ccc2c(c1)OCO2 here?
A: 173 µM

Q: What about the inhibition [3] of the same molecule?
A: Dose-dependent effect

Q: And the Ki [4]?
A: 8.21 µM

Q: What about the Activity [5] of the same molecule?
A: inactive
